This is an account of results in ChEMBL document CHEMBL1649180, “Early postpartum pharmacokinetics of lopinavir initiated intrapartum in Thai women” (Antimicrob Agents Chemother, 2009).

The nature of series [1]: Drug level in HIV-infected Thai pregnant women serum at 400 mg, po bid initiated intrapartum administered for 30 days in combination with 100 mg, po bid ritonavir measured before administering last dose. Type of series: ADME, organism-based. Conditions: female, human, read-out: Drug uptake.
Series [2] is described as follows: Drug level in HIV-infected Thai pregnant women serum at 400 mg, po bid initiated intrapartum in combination with 100 mg, po bid ritonavir measured 4 hrs post last dose. Type of series: ADME, organism-based. Conditions: female, human, read-out: Drug uptake.
The nature of series [3]: Tmax in HIV-infected Thai pregnant women at 400 mg, po bid initiated intrapartum in combination with 100 mg, po bid ritonavir measured within 72 hrs postpartum. Type of series: ADME, organism-based. Conditions: female, human, in vivo.
Series [4] is described as follows: Drug level in HIV-infected Thai pregnant women serum at 400 mg, po bid initiated intrapartum in combination with 100 mg, po bid ritonavir measured 2 hrs post last dose. The following applies: female, human, read-out: Drug uptake. The class given is ADME, organism-based.
Series [5] has as its system Serum. The series can be described thus: Drug level in HIV-infected Thai pregnant women serum before intrapartum initiation of 400 mg, po bid in combination with 100 mg, po bid ritonavir. Type of series: ADME, organism-based. The following applies: human, in vivo.
Series [6] has as its system Serum. The series can be described thus: Ratio of drug level in 4 hrs to 30 days post last dose of HIV-infected Thai pregnant women serum at 400 mg, po bid initiated intrapartum in combination with 100 mg, po bid ritonavir. The class given is ADME, organism-based. Conditions: human, in vivo.
The nature of series [7]: AUC (0 to 12 hrs) in HIV-infected Thai pregnant women at 400 mg, po bid initiated intrapartum in combination with 100 mg, po bid ritonavir measured within 72 hrs postpartum. The class given is ADME, organism-based. Conditions: female, human, plasma. Details: time < 12 hr, dose 400 mg, route oral.
Series [8] is described as follows: Drug level in HIV-infected Thai pregnant women serum at 400 mg, po bid initiated intrapartum administered for 30 days in combination with 100 mg, po bid ritonavir measured 2 hrs post last dose. Type of series: ADME, organism-based. The following applies: female, human, read-out: Drug uptake.
The subject of series [9] is Serum. The experiment in a line: Ratio of drug level before intrapartum initiation to 30 days pre-last dose of HIV-infected Thai pregnant women serum at 400 mg, po bid in combination with 100 mg, po bid ritonavir. Conditions: human, in vivo, 720 h. Type of series: ADME, organism-based.
The subject of series [10] is Serum. The experiment in a line: Ratio of drug level in 2 hrs to 30 days post last dose of HIV-infected Thai pregnant women serum at 400 mg, po bid initiated intrapartum in combination with 100 mg, po bid ritonavir. Type of series: ADME, organism-based. Conditions: human, in vivo.
Series [11] is described as follows: Drug level in HIV-infected Thai pregnant women serum at 400 mg, po bid initiated intrapartum administered for 30 days in combination with 100 mg, po bid ritonavir measured 4 hrs post last dose. Conditions: female, human, read-out: Drug uptake. The class given is ADME, organism-based.
The nature of series [12]: Drug level in HIV-infected Thai pregnant women serum at 400 mg, po bid initiated intrapartum in combination with 100 mg, po bid ritonavir measured 12 hrs post last dose. Type of series: ADME, organism-based. Conditions: female, human, read-out: Drug uptake.
The nature of series [13]: Cmax in HIV-infected Thai pregnant women at 400 mg, po bid initiated intrapartum in combination with 100 mg, po bid ritonavir measured within 72 hrs postpartum. Type of series: ADME, organism-based. Details: dose 400 mg, route oral. The following applies: female, human, in vivo.
The test system of the next series is Homo sapiens. The experiment in a line: Toxicity in HIV-infected Thai pregnant women assessed as adverse effect at 400 mg, po bid initiated intrapartum administered for 30 days in combination with 100 mg, po bid ritonavir. Type of series: organism-based. Conditions: in vivo, 720 h.
In series [14] the test system is Serum. The series can be described thus: Ratio of drug level in 2 hrs to 30 days post last dose of HIV-infected Thai pregnant women serum at 100 mg, po bid initiated intrapartum in combination with 400 mg, po bid Lopinavir. The class given is ADME, organism-based. The following applies: human, in vivo.
A short description of series [15]: Tmax in HIV-infected Thai pregnant women at 100 mg, po bid initiated intrapartum in combination with 400 mg, po bid Lopinavir measured within 72 hrs postpartum. Type of series: ADME, organism-based. Conditions: female, human, in vivo.
A short description of series [16]: Drug level in HIV-infected Thai pregnant women serum at 100 mg, po bid initiated intrapartum in combination with 400 mg, po bid Lopinavir measured 4 hrs post last dose. Type of series: ADME, organism-based. Conditions: female, human, read-out: Drug uptake.
Series [17] has as its system Serum. The series can be described thus: Drug level in HIV-infected Thai pregnant women serum before intrapartum initiation of 100 mg, po bid in combination with 400 mg, po bid Lopinavir. Type of series: ADME, organism-based. Conditions: human, in vivo.
Series [18] deals with Serum. The experiment in a line: Ratio of drug level in 4 hrs to 30 days post last dose of HIV-infected Thai pregnant women serum at 100 mg, po bid initiated intrapartum in combination with 400 mg, po bid Lopinavir. Conditions: human, in vivo. Type of series: ADME, organism-based.
Series [19] in a line: Cmax in HIV-infected Thai pregnant women at 100 mg, po bid initiated intrapartum in combination with 400 mg, po bid Lopinavir measured within 72 hrs postpartum. The class given is ADME, organism-based. Details: dose 100 mg, route oral. The following applies: female, human, in vivo.
The nature of series [20]: Drug level in HIV-infected Thai pregnant women serum at 100 mg, po bid initiated intrapartum administered for 30 days in combination with 400 mg, po bid Lopinavir measured 4 hrs post last dose. The class given is ADME, organism-based. Conditions: female, human, read-out: Drug uptake.
Series [21] can be described thus: Drug level in HIV-infected Thai pregnant women serum at 100 mg, po bid initiated intrapartum in combination with 400 mg, po bid Lopinavir measured 2 hrs post last dose. Type of series: ADME, organism-based. Conditions: female, human, read-out: Drug uptake.
A short description of series [22]: Drug level in HIV-infected Thai pregnant women serum at 100 mg, po bid initiated intrapartum administered for 30 days in combination with 400 mg, po bid Lopinavir measured before administering last dose. The following applies: female, human, read-out: Drug uptake. Type of series: ADME, organism-based.
Series [23] in a line: Drug level in HIV-infected Thai pregnant women serum at 100 mg, po bid initiated intrapartum in combination with 400 mg, po bid Lopinavir measured 12 hrs post last dose. The following applies: female, human, read-out: Drug uptake. The class given is ADME, organism-based.
Series [24] deals with Serum. The series can be described thus: Ratio of drug level before intrapartum initiation to 30 days pre-last dose of HIV-infected Thai pregnant women serum at 100 mg, po bid in combination with 400 mg, po bid Lopinavir. The class given is ADME, organism-based. The following applies: human, in vivo, 720 h.
Series [25] is described as follows: Drug level in HIV-infected Thai pregnant women serum at 100 mg, po bid initiated intrapartum administered for 30 days in combination with 400 mg, po bid Lopinavir measured 2 hrs post last dose. Type of series: ADME, organism-based. The following applies: female, human, read-out: Drug uptake.
Series [26] can be described thus: AUC (0 to 12 hrs) in HIV-infected Thai pregnant women at 100 mg, po bid initiated intrapartum in combination with 400 mg, po bid Lopinavir measured within 72 hrs postpartum. Type of series: ADME, organism-based. Details: time < 12 hr, dose 100 mg, route oral. The following applies: female, human, plasma.

As a reminder, the Tmax is the time from dosing to the highest level. By AUC is commonly meant concentration integrated over time. The term Cmax denotes the maximum level reached in the sampled fluid or tissue. For the compound `Cc1cccc(C)c1OCC(=O)N[C@@H](Cc1ccccc1)[C@@H](O)C[C@H](Cc1ccccc1)NC(=O)[C@H](C(C)C)N1CCCNC1=O` [LOPINAVIR], the concentration at 720 h in series [1] stood at 9170 ng/mL. Moreover, the values for the concentration at 4 h in [2] and in series [11] were 10800 ng/mL and 13000 ng/mL, respectively. In addition, the Tmax in series [3] is 3.9 h. Besides, the concentration at 2 h amounted to 10500 ng/mL in series [4] and 11700 ng/mL in series [8]. Moreover, the Drug uptake with Serum [5] amounted to 6.08 µg/mL; with Serum [6], 0.81; with Serum [9], 0.66; in the series with Serum [10], 0.85. In addition, the AUC at 12 h in series [7] was 99700 ng·h/mL. For the same compound, the concentration at 12 h in series [12] stood at 5180 ng/mL. Besides, the Cmax in [13] turned out to be 11200 ng/mL. Besides, the Activity result in the series on Homo sapiens is on record as “Non-toxic”.

In the case of `CC(C)c1nc(CN(C)C(=O)N[C@H](C(=O)N[C@@H](Cc2ccccc2)C[C@H](O)[C@H](Cc2ccccc2)NC(=O)OCc2cncs2)C(C)C)cs1` [RITONAVIR], the Drug uptake in the series on Serum [14] amounted to 0.76; in the series on Serum [17], 0.16 µg/mL; in the series on Serum [18], 0.68; in the series with Serum [24], 0.54. Moreover, in series [15], the Tmax came out at 3.9 h. Also, the concentration at 4 h in [16] was 580 ng/mL; in [20] it was 810 ng/mL. Also, the Cmax in series [19] is 600 ng/mL. For the same compound, the figures for the concentration at 2 h in [21] and in series [25] were 450 ng/mL and 610 ng/mL, respectively. The concentration at 720 h in series [22] was 290 ng/mL. For the same compound, the concentration at 12 h in series [23] came out at 100 ng/mL. Besides, the AUC at 12 h in series [26] was 4270 ng·h/mL.
